Columns and labels:
[1] = test system: ragweed; assay: Test A pre-/postemergence herbicide test; format: in vivo, Ambrosia elatior
Summary of the method: (§1)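 Seeds in loam–sand blend received preemergence directed soil spray; separately, plants 2–10 cm at one- to two-leaf stage received postemergence spray, both with test chemicals in non-phytotoxic solvent with surfactant. After ~10 days in greenhouse, injury rated visually against untreated controls, 0 (no effect) to 100 (complete control).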

[2] = test system: galium; assay: Test A postemergence herbicide test; format: in vivo, Galium aparine
Summary of the method: (§2)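 Plants at the one- to two-leaf stage, 2–10 cm tall, grown in loam/sand pots, received postemergence sprays of the test chemicals. After about 10 days in the greenhouse, injury was scored visually against untreated controls on a 0–100 scale (0 none, 100 complete control).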

[3] = test system: ryegrass, Italian; assay: Test A pre-/postemergence herbicide test; format: in vivo, Lolium multiflorum
Summary of the method: as §1

[4] = test system: wheat; assay: Test A pre-/postemergence herbicide test; format: in vivo, Triticum aestivum; details: Postemergence
Summary of the method: as §1

[5] = test system: pigweed; assay: Test A pre-/postemergence herbicide test; format: in vivo, Amaranthus retroflexus
Summary of the method: as §1

[6] = test system: corn; assay: Test A pre-/postemergence herbicide test; format: in vivo, Zea mays; details: Postemergence
Summary of the method: as §1

[7] = test system: giant foxtail; assay: Test A pre-/postemergence herbicide test; format: in vivo, Setaria faberii
Summary of the method: as §1

[8] = test system: sedge, umbrella; assay: Test B flooded paddy test; format: in vivo, Cyperus difformis; details: 500 g ai/ha, Flood; scale of 0 to 100 where 0 is no effect and 100 is complete control
Summary of the method: (§3)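 Visual ratings from 0, meaning no effect, up to 100, meaning complete control, were made by comparison with untreated controls 13 to 15 days after treatment. Test compounds went straight into floodwater standing 3 cm over the soil of pots holding 2-leaf seedlings.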

[9] = test system: kochia; assay: Test A pre-/postemergence herbicide test; format: in vivo, Kochia scoparia
Summary of the method: as §1

[10] = test system: blackgrass; assay: Test A postemergence herbicide test; format: in vivo, Alopecurus myosuroides
Summary of the method: as §2

[11] = test system: ducksalad; assay: Test B flooded paddy test; format: in vivo, Heteranthera limosa; details: 500 g ai/ha, Flood; scale of 0 to 100 where 0 is no effect and 100 is complete control
Summary of the method: as §3

[12] = test system: rice; assay: Test B flooded paddy test; format: in vivo, Oryza sativa; details: 500 g ai/ha, Flood; scale of 0 to 100 where 0 is no effect and 100 is complete control
Summary of the method: as §3

[13] = test system: barnyardgrass; assay: Test A pre-/postemergence herbicide test; format: in vivo, Echinochloa crus-galli
Summary of the method: as §1

[14] = test system: barnyardgrass; assay: Test B flooded paddy test; format: in vivo, Echinochloa crus-galli; details: 500 g ai/ha, Flood; scale of 0 to 100 where 0 is no effect and 100 is complete control
Summary of the method: as §3

[15] = Postemergence, 125 g ai/ha, visual rating on 0 to 100 scale (0 no effect, 100 complete control), approx. 10 days
[16] = Postemergence, 500 g ai/ha, 0 to 100 scale (0 no effect, 100 complete control)
[17] = Preemergence, 125 g ai/ha, 0 to 100 scale where 0 is no effect and 100 is complete control
[18] = preemergence, 500 g ai/ha, 0 to 100 scale, 0 is no effect and 100 is complete control
[19] = 125 g ai/ha, visual rating on 0 to 100 scale (0 no effect, 100 complete control), approx. 10 days
[20] = 500 g ai/ha, 0 to 100 scale (0 no effect, 100 complete control)
[21] = Preemergence, 500 g ai/ha, visual rating on 0 to 100 scale (0 no effect, 100 complete control)

| Compound | Plant response rating, Ragweed [1, 15] | Plant response rating, Ragweed [1, 16] | Plant response rating, Ragweed [1, 17] | Plant response rating, Galium [2, 19] | Plant response rating, Galium [2, 20] | Plant response rating, Ryegrass, Italian [3, 15] | Plant response rating, Ryegrass, Italian [3, 16] | Plant response rating, Ryegrass, Italian [3, 17] | Ryegrass, Italian plant response rating [3, 21] | Plant response rating, Wheat [4, 19] | Plant response rating, Wheat [4, 20] | Plant response rating, Pigweed [5, 15] | Plant response rating, Pigweed [5, 16] | Plant response rating, Pigweed [5, 17] | Plant response rating, Corn [6, 19] | Plant response rating, Corn [6, 20] | Plant response rating, Foxtail, Giant [7, 15] | Plant response rating, Foxtail, Giant [7, 16] | Plant response rating, Foxtail, Giant [7, 17] | Plant response rating, Sedge, Umbrella [8] | other results |
| --- | --- | --- | --- | --- | --- | --- | --- | --- | --- | --- | --- | --- | --- | --- | --- | --- | --- | --- | --- | --- | --- |
| O=C1NCC(c2cnn(CC(F)(F)F)c2)C1C(=O)Nc1ccccc1F (stereo not drawn) [Compound 298] | 0 | 0 | 0 | 0 | 0 | 0 | 0 | 0 | 0 | 0 | 0 | 0 | 0 | 0 | 0 | 0 | 0 | 0 | 0 | 0 | Plant response rating, Ragweed [1, 18]: 0; Plant response rating, Pigweed [5, 18]: 0; Plant response rating, Foxtail, Giant [7, 18]: 0; Plant response rating, Kochia [9, 15]: 0; Plant response rating, Kochia [9, 16]: 0; Plant response rating, Kochia [9, 17]: 0; Plant response rating, Kochia [9, 18]: 0; Plant response rating, Blackgrass [10, 19]: 0; Plant response rating, Blackgrass [10, 20]: 0; Plant response rating, Ducksalad [11]: 0; Plant response rating, Rice [12]: 0; Plant response rating, Barnyardgrass [13, 15]: 0; Plant response rating, Barnyardgrass [13, 16]: 0; Plant response rating, Barnyardgrass [13, 17]: 0; Plant response rating, Barnyardgrass [13, 18]: 0; Plant response rating, Barnyardgrass [14]: 0 |
| O=C1NCC(c2cnn(CC(F)(F)F)c2)C1C(=O)Nc1ccccc1C(F)(F)F (stereo not drawn) [Compound 300] | 0 | 0 | 0 | 0 | 0 | 0 | 0 | 0 | 0 | 0 | 0 | 0 | 0 | 0 | 0 | 0 | 0 | 0 | 0 | 0 | Plant response rating, Ragweed [1, 18]: 0; Plant response rating, Pigweed [5, 18]: 0; Plant response rating, Foxtail, Giant [7, 18]: 0; Plant response rating, Kochia [9, 15]: 0; Plant response rating, Kochia [9, 16]: 0; Plant response rating, Kochia [9, 17]: 0; Plant response rating, Kochia [9, 18]: 0; Plant response rating, Blackgrass [10, 19]: 0; Plant response rating, Blackgrass [10, 20]: 0; Plant response rating, Ducksalad [11]: 0; Plant response rating, Rice [12]: 0; Plant response rating, Barnyardgrass [13, 15]: 0; Plant response rating, Barnyardgrass [13, 16]: 0; Plant response rating, Barnyardgrass [13, 17]: 0; Plant response rating, Barnyardgrass [13, 18]: 0; Plant response rating, Barnyardgrass [14]: 0 |
| O=C1NCC(c2cccc(Br)c2)C1C(=O)Nc1ccccc1Cl (stereo not drawn) [Compound 311] | 0 | 0 | 0 | 0 | 0 | 0 | 0 | 0 | 0 | 0 | 0 | 0 | 0 | 0 | 0 | 0 | 60 | 70 | 80 | 0 | Ragweed plant response rating [1, 21]: 0; Pigweed plant response rating [5, 21]: 0; Foxtail, Giant plant response rating [7, 21]: 90; Plant response rating, Kochia [9, 15]: 0; Plant response rating, Kochia [9, 16]: 0; Plant response rating, Kochia [9, 17]: 0; Kochia plant response rating [9, 21]: 0; Plant response rating, Blackgrass [10, 19]: 0; Plant response rating, Blackgrass [10, 20]: 30; Plant response rating, Ducksalad [11]: 98; Plant response rating, Rice [12]: 0; Plant response rating, Barnyardgrass [13, 15]: 60; Plant response rating, Barnyardgrass [13, 16]: 80; Plant response rating, Barnyardgrass [13, 17]: 70; Barnyardgrass plant response rating [13, 21]: 80; Plant response rating, Barnyardgrass [14]: 50 |
| O=C1NCC(c2cccc(C(F)(F)F)c2)C1C(=O)Nc1cc(F)ccc1F (stereo not drawn) [Compound 314] | 0 | 0 | 0 | 0 | 0 | 0 | 0 | 0 | 0 | 0 | 0 | 0 | 0 | 0 | 0 | 0 | 60 | 80 | 30 | 0 | Ragweed plant response rating [1, 21]: 0; Pigweed plant response rating [5, 21]: 0; Foxtail, Giant plant response rating [7, 21]: 90; Plant response rating, Kochia [9, 15]: 0; Plant response rating, Kochia [9, 16]: 0; Plant response rating, Kochia [9, 17]: 0; Kochia plant response rating [9, 21]: 0; Plant response rating, Blackgrass [10, 19]: 0; Plant response rating, Blackgrass [10, 20]: 0; Plant response rating, Ducksalad [11]: 40; Plant response rating, Rice [12]: 15; Plant response rating, Barnyardgrass [13, 15]: 30; Plant response rating, Barnyardgrass [13, 16]: 80; Plant response rating, Barnyardgrass [13, 17]: 20; Barnyardgrass plant response rating [13, 21]: 80; Plant response rating, Barnyardgrass [14]: 25 |
